Results published in US9616037B2, “Aryl-phenyl-sulfonamido-cycloalkyl compounds and their use” (PIMCO 2664 Limited, priority 2008, dated 2017).

Experiments:
J774 macrophages = experiment: Alamar Blue macrophage J774 viability assay; format: cell-based; settings: Mus musculus; J774 cells, 72 hours with compound, Alamar Blue readout; read-out: IC50
Description: Initial screening of candidate compounds was performed using in vitro assays to determine potency, metabolic stability and solubility in biologically relevant fluids. Potency was assessed using a viability assay based on the survival of the J774 macrophage cell line. Macrophages are closely related to osteoclasts and have been used previously as a model system for osteoclast survival (see, e.g., Luckman et al., 1998). Like osteoclasts, J774 macrophages are dependent on continued NFκB activation for survival, thereby providing a valuable screen for compounds with anti-inflammatory activity. Metabolic stability was measured by determining the rate of disappearance of compound in the presence of human liver microsomal preparations, as quantified by LC-MS/MS. Solubility was measured by equilibration of the compound in fasted state simulated intestinal fluid (FaSSIF) and quantified by HPLC.
In vitro potency as anti-inflammatory agents was determined for a number of APSAC compounds by incubation with J774 macrophages and subsequent determination of cell viability.
J774 cells were plated at 10^4 cells per well in 100 μL αMEM (α Modified Eagle Medium) in 96-well plates and grown overnight. The next day, test compounds were added to the cultures, and cultures were continued for another 72 hours. At the end of the culture period, cell survival was determined using an Alamar Blue assay as previously described (see, e.g., Nociari et al., 1998).
Alamar Blue is an oxidation-reduction sensitive indicator. The dye itself is in the oxidised state, which is blue and non-fluorescent. The dye can accept electrons from reducing species, such as NADPH and FADH, to form a reduced dye species, which is red and fluorescent. Thus the transformation from oxidised form to reduced form can be measured by fluorimetric or colourimetric means. For fluorescence measurements, 530-560 nm excitation and 590 nm emission wavelengths are typically used. For colourimetric measurements, absorbance at 570 nm (reduced form) and 600 nm (oxidised form) is typically measured. A simple calculation is performed to determine the relative quantities of the two species.
A high ratio of the reducing species, NADPH and FADH, to the corresponding oxidised species, NADP and FAD, is an indicator that cells are proliferating and viable. A low ratio indicates cells that are quiescent or non-viable.
Briefly, Alamar Blue (Biosource International) was added undiluted to the each well (1:10 v/v, 10 μL). The plate was incubated at 37° C. for 3-4 hours and the fluorescence was measured at 590 nm, with a 25 nm bandwidth. A high reading indicated cells with normal viability, and a low reading indicated cells that have been damaged and are no longer proliferating normally. The controls gave a high fluorescence reading, indicating a high number of live, healthy cells. A potent test compound gave a low fluorescence reading. The average results for each test compound (n=5) were expressed as a percent (%) of the average control value.
Addition of Compounds. All of the compounds studied were made up as 100 mM solutions in DMSO. These stock solutions were then diluted 1000-10000× in culture medium (αMEM). From these 100 μM or 10 μM solutions, convenient quantities (3-33 μL) were added directly to the wells so as to give the desired final compound concentration.

caspase 3 = experiment: Caspase induction study (Nucview488 fluorogenic substrate) in the presence of TNFα; format: cell-based; settings: human monocytes, 10 μM test compound, 10 ng/mL TNFα, Nucview488 stain
Description: The ability to activate caspase 3 was studied using a fluorogenic enzyme substrate assay.
Briefly, human primary monocytes were isolated from whole blood using Ficoll gradients. The resulting cells were plated into microwell plates for 24 hours after which non-adherent cells were removed by washing. Cells were differentiated in the presence of 100 ng/mL MCSF. Cells were pre-treated with 10 μM test compound for 1 hour prior to stimulation with 10 ng/mL TNFα. Caspase 3 activation as an indicator of apoptosis was detected using the Nucview488 stain, which was added one hour prior to visualisation. The Nucview488 stain indicates the activation of caspase 3 (CPP32, apopain, YAMA), a cysteine peptidase which plays a key role in the induction of apoptosis in individual whole mammalian cells. Essentially, Nucview488 consists of a fluorogenic DNA dye and a DEVD substrate moiety specific for caspase 3. In itself, Nucview488 is nonfluorescent. However, upon entering the cell cytoplasm, Nucview488 is cleaved by caspase 3 to form a high-affinity DNA dye. The released DNA dye migrates to the cell nucleus to stain the nucleus bright green. This fluorescent staining produced in response to caspase 3 activity is monitored using fluorescent light microscopy.

SMILES	IC50 (J774 macrophages) [nM]	caspase 3 activation (fluorescence detected by light microscopy) (caspase 3)
O=S(=O)(N[C@H]1CC[C@@H](CO)C1)c1ccc(-c2ccc(F)cc2F)cc1 [ABD773, 2′,4′-Difluoro-N-((1 S,3R)-3-(hydroxymethyl)cyclopentyl)biphenyl-4-sulfonamide]	130	–
O=S(=O)(N[C@H]1CC[C@@H](CO)CC1)c1ccc(-c2ccc(F)cc2F)cc1 [ABD781, 2′,4′-Difluoro-N-(cis-4-(hydroxymethyl)cyclohexyl)biphenyl-4-sulfonamide]	300	significant activation of caspase 3
